The subject of experiment [1] is Pseudomonas aeruginosa ATCC 33359 (PA). Kind of experiment: MIC broth microdilution. The format is cell-based. Particulars: for MIC: ATCC33359. An outline of the steps:
(§1)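 Compounds are diluted two-fold across a final range of 0.39-200 μM, keeping DMSO no higher than 2% final. Bacteria in cation-adjusted Müller-Hinton broth are then incubated at 37° C under ambient atmosphere for 20-24 h. The lowest growth-inhibiting concentration gives the MIC.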
A general note: In broth dilution the organism is exposed to a series of concentrations in liquid medium.

Experiment [2] relates to Staphylococcus aureus ATCC 35556 (SA). Nature of the experiment: MIC broth microdilution. The format is cell-based. Particulars: for MIC: ATCC35556. The essentials: as §1
Experiment [3] has as its system Escherichia coli K12 (EC). Kind of experiment: MIC broth microdilution. In kind it is cell-based. The essentials:
as §1

In experiment [4] the test system is Serratia marcescens SL1344 (Sm). Nature of the experiment: MIC broth microdilution. The format is cell-based. An outline of the steps: as §1
Experiment [5] has as its system Salmonella typhimurium XNAA5 (St). Kind of experiment: MIC broth microdilution. The format is cell-based. An outline of the steps: as §1
In experiment [6] the test system is Acinetobacter baumannii ATCC 17978 (AB). Nature of the experiment: MIC broth microdilution. The format is cell-based. Particulars: for MIC: ATCC17978. The essentials:
as §1

The test system of experiment [7] is E. coli NCTC 13441 (UPEC). Nature of the experiment: MIC broth microdilution. In kind it is cell-based, Escherichia coli. Particulars: for MIC: Escherichia coli, NCTC13441. An outline of the steps: as §1
The test system of experiment [8] is Klebsiella pneumoniae ATCC 10031 (KP2). Kind of experiment: MIC broth microdilution. Particulars: ATCC10031. The format is cell-based. The essentials:
(§2)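 Two-fold dilution series, 0.39-200 μM final, max 2% DMSO; CA-MHB; 37° C, ambient air, 20-24 h; MIC = lowest conc. inhibiting visible growth. CLSI broth microdilution.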

For experiment [9], the system named is K. pneumoniae NCTC 13438 (KP1). Kind of experiment: MIC broth microdilution. The format is cell-based, Klebsiella pneumoniae. Particulars: Klebsiella pneumoniae, NCTC13438. An outline of the steps:
as §2

Experiment [10] concerns K. pneumoniae H154600588 (KP8). Kind of experiment: MIC broth microdilution. The format is cell-based, Klebsiella pneumoniae. Particulars: Klebsiella pneumoniae. An outline of the steps:
as §2

Experiment [11] deals with K. pneumoniae H151440671 (KP10). Kind of experiment: MIC broth microdilution. In kind it is cell-based, Klebsiella pneumoniae. Particulars: Klebsiella pneumoniae. An outline of the steps: as §2
For experiment [12], the system named is K. pneumoniae H154020667 (KP6). Nature of the experiment: MIC broth microdilution. In kind it is cell-based, Klebsiella pneumoniae. Particulars: Klebsiella pneumoniae. An outline of the steps: as §2
The subject of experiment [13] is K. pneumoniae H154300688 (KP9). Kind of experiment: MIC broth microdilution. The format is cell-based, Klebsiella pneumoniae. Particulars: Klebsiella pneumoniae. An outline of the steps:
as §2

In experiment [14] the test system is K. pneumoniae H154640784 (KP7). Kind of experiment: MIC broth microdilution. The format is cell-based, Klebsiella pneumoniae. Particulars: Klebsiella pneumoniae. An outline of the steps: as §2
The test system of experiment [15] is K. pneumoniae ATCC 700603 (KP3). Kind of experiment: MIC broth microdilution. In kind it is cell-based, Klebsiella pneumoniae. Particulars: Klebsiella pneumoniae, ATCC700603. An outline of the steps:
as §2

For experiment [16], the system named is K. pneumoniae H154680676 (KP5). Kind of experiment: MIC broth microdilution. The format is cell-based, Klebsiella pneumoniae. Particulars: Klebsiella pneumoniae. The essentials:
as §2

Experiment [17] has as its system human hepatocarcinoma cell line ATCC HB-8065 (HepG2). Nature of the experiment: Human cell viability (CellTiter-Glo). In kind it is cell-based. Particulars: Homo sapiens; HepG2 cells, 24 h incubation, CellTiter-Glo luminescence, 0.2-100 μM; read-out: IC50 values against the HepG2 cell line. An outline of the steps: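 Cytotoxicity was read as CellTiter-Glo luminescence after 24 h compound exposure at 37° C., 5% CO2. Final concentrations spanned 0.2-100 μM in two-fold steps, in 1% FBS MEM with 1% DMSO, on cells plated a day earlier at 20,000/well. IC50 came from 4-parameter logistic regression.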
On the technique in general: ATP-based viability assays read luminescence as a measure of living cells.

Values after ≈ are worked out from the molar mass of the structure shown. Some results are limits rather than exact numbers.

As to `O=C(O)c1cn(C2CC2)c2cc(N3CCNCC3)c(F)cc2c1=O` [CIP], the “MIC PA” value in [1] was “B (a MIC of from 1 to 10 is assigned the letter B)”. Besides, the “MIC SA” value in experiment [2] was “B (a MIC of from 1 to 10 is assigned the letter B)”. For the same compound, the “MIC EC” value in experiment [3] is reported as “A (an MIC (μM) of less or equal to 1 is assigned the letter A)”. The “MIC Sm” value in experiment [4] was “A (an MIC (μM) of less or equal to 1 is assigned the letter A)”. The “MIC St” value in [5] was “A (an MIC (μM) of less or equal to 1 is assigned the letter A)”. The “MIC AB” value in experiment [6] was “A (an MIC (μM) of less or equal to 1 is assigned the letter A)”. Also, the “MIC UPEC” value in experiment [7] was “D (a MIC of over 100 is assigned the letter D)”.

Take `COc1ccc(-c2nc(N)[nH]c2-c2ccnc(C)c2)cc1Cl` [Example 12, 4-(3-Chloro-4-methoxyphenyl)-5-(2-methylpyridin-4-yl)-1H-imidazol-2-amine]: the minimal inhibitory concentration (MIC) is greater than 100 µM in experiment [1]; greater than 100 µM in experiment [2]; 1 to 10 µM (≈ 0.315 to 3.15 µg/mL) in experiment [3]; greater than 100 µM in experiment [6]; no more than 1 µM in experiment [8]; 1 to 10 µM (≈ 0.315 to 3.15 µg/mL) in [7]. The MIC is 10 to 100 µM (≈ 3.15 to 31.5 µg/mL) in [9]; 10 to 100 µM (≈ 3.15 to 31.5 µg/mL) in [10]; 1 to 10 µM (≈ 0.315 to 3.15 µg/mL) in [11]; 1 to 10 µM (≈ 0.315 to 3.15 µg/mL) in experiment [12]; 1 to 10 µM (≈ 0.315 to 3.15 µg/mL) in [13]; 10 to 100 µM (≈ 3.15 to 31.5 µg/mL) in experiment [14]. In addition, the minimum inhibitory concentration (MIC) in experiment [15] was 10 to 100 µM (≈ 3.15 to 31.5 µg/mL); in experiment [16], 1 to 10 µM (≈ 0.315 to 3.15 µg/mL). In addition, in experiment [17], the IC50 is greater than 100 µM.

Regarding `Nc1cc(-c2[nH]c(N)nc2-c2ccc3c(c2)OCCO3)ccn1` [Example 24, 4-(2-Amino-4-(2,3-dihydrobenzo[b][1,4]dioxin-6-yl)-1H-imidazol-5-yl)pyridin-2-amine], the MIC in experiment [1] was greater than 100 µM; in experiment [2] it was greater than 100 µM; in [3], 1 to 10 µM (≈ 0.309 to 3.09 µg/mL); in experiment [6], greater than 100 µM; in [8], no more than 1 µM; in experiment [7] it was 1 to 10 µM (≈ 0.309 to 3.09 µg/mL). For the same compound, the MIC in experiment [9] fell in the range of 10 to 100 µM (≈ 3.09 to 30.9 µg/mL); in experiment [10], 10 to 100 µM (≈ 3.09 to 30.9 µg/mL); in [11], 1 to 10 µM (≈ 0.309 to 3.09 µg/mL); in [12], 1 to 10 µM (≈ 0.309 to 3.09 µg/mL); in [13], 10 to 100 µM (≈ 3.09 to 30.9 µg/mL); in experiment [14], 10 to 100 µM (≈ 3.09 to 30.9 µg/mL). Also, the figures for the MIC in experiment [15] and in experiment [16] were 10 to 100 µM (≈ 3.09 to 30.9 µg/mL) and 1 to 10 µM (≈ 0.309 to 3.09 µg/mL), respectively. Further, in [17], the IC50 was greater than 100 µM.

Consider `Cc1cc(-c2[nH]c(N)nc2-c2ccc3c(c2)OCO3)ccn1` [Example 26, 4-(Benzo[d][1,3]dioxol-5-yl)-5-(2-methylpyridin-4-yl)-1H-imidazol-2-amine], for which the MIC in [1] is greater than 100 µM; in experiment [2] it was greater than 100 µM; in experiment [3], no more than 1 µM; in experiment [6], greater than 100 µM; in experiment [8], no more than 1 µM; in experiment [7], 1 to 10 µM (≈ 0.294 to 2.94 µg/mL). For the same compound, the MIC in experiment [9] fell in the range of 10 to 100 µM (≈ 2.94 to 29.4 µg/mL); in experiment [10], 10 to 100 µM (≈ 2.94 to 29.4 µg/mL); in [11], 1 to 10 µM (≈ 0.294 to 2.94 µg/mL); in experiment [12], 1 to 10 µM (≈ 0.294 to 2.94 µg/mL); in [13] it was 1 to 10 µM (≈ 0.294 to 2.94 µg/mL); in experiment [14] it was 10 to 100 µM (≈ 2.94 to 29.4 µg/mL). For the same compound, the values for the MIC in experiment [15] and in [16] were 10 to 100 µM (≈ 2.94 to 29.4 µg/mL) and 1 to 10 µM (≈ 0.294 to 2.94 µg/mL), respectively. In experiment [17], the 50% inhibitory concentration (IC50) was greater than 100 µM.

What is called MIC is the least concentration at which growth counts as inhibited. Low values mean a more susceptible organism, high ones a less susceptible organism. As a reminder, the IC50 is the concentration needed to halve the response being measured.

The values above are taken from patent US11345694B2, “Antibacterial compounds” (DISCUVA LTD., priority 2017, dated 2022).
